The test system of test [1] is human dental pulp explants. Briefly: Cell outgrowth from human dental pulp explants cultured with scaffolds (live/dead markers, confocal microscopy, SEM). Format: cell-based. Conditions: fluorescence, confocal or SEM images. Here is the method:
(§1) The HDPSCs were isolated from human dental pulp tissues and cultured on ABM and ABM-P-15 scaffolds in media. The cultured cells on the scaffolds were analysed by live/dead fluorescent markers, histological staining (ALP, Alizalin Red, Toluidine blue), confocal microscopy and scanning electron microscopy. The effect of P-15 on HDPSCs BMP-2 production was confirmed by a well developed promyoblast induction assay via co-culturing of C2C12 promyoblasts and HDPSCs on ABM or ABM-P-15. […] Cell outgrowth from the explants was assessed by live/dead fluorescent markers, histological staining (ALP), confocal microscope and scanning electron microscopy.
Teeth were obtained with patients' informed consent following project approval by the NHS local ethical committee (COREC: 06/Q1206/165). Human dental pulp was extracted from sound intact teeth, which had been surgically removed at the Leeds Dental Institute for clinical reasons. Each tooth was washed within a Class II hood and cracked in a bench vice. The dental pulp tissues were harvested and washed with 1×PBS and minced into small pieces (1×2×2 mm^3) which were kept in the PBS and ready for use.
PepGen P-15 (ABM-P15) and/or Osteo-Graf/N-300 (ABM alone) were provided by Cerapedics Inc. (Lakewood, Colo.) in a particulate form. 50 mg of ABM-P-15 and ABM alone were transferred into the 48 well plates and sterilized under UV radiation for 30 minutes. […]

Another test relates to HDPSCs. As to the kind of experiment: ALP and toluidine blue staining of HDPSCs cultured on scaffolds. Particulars: isolated HDPSCs on scaffolds. Format: cell-based, human. Here is the method:
as §1

“Also recorded” adds a separate entry of the source. Ends that are not written are not given here.

With “GTPGPQGIAGQRGVV [P-15, collagen mimetic, 15 amino acid residues of the α1(I) chain of collagen]”, the “outgrowth of HDPSCs from dental pulp explants” value in test [1] (50 mg scaffold, basal media) is “enhanced the outgrowth”. The “cell bridge formation between adjacent scaffold particles” value in test [1] (explant culture) is given as “promoted cell bridge formation”. Also, the “HDPSCs differentiation along the osteogenic lineage (ALP expression)” value in the test on HDPSCs was “promoted the HDPSCs differentiation along the osteogenic lineage; also recorded: promoted HDPSCs differentiation along the osteogenic lineage”.

(Values after patent US20100098670A1, “Autologous dental pulp stem cell-based bone graft substitute” (Cerapedics Inc., priority 2007, published 2010).)
